ChEMBL document CHEMBL4390711, “New phenylpropanoid allopyranosides from the rhizomes of Cimicifuga dahurica” (Bioorg Med Chem Lett, 2019)

System: RAW264.7
Assay: Antiinflammatory activity against mouse RAW264.7 cells assessed as inhibition of LPS-induced PGE2 production preincubated for 1 hr followed by LPS-stimulation and measured after 18 hrs
Type: functional, cell-based

| Compound | IC50 |
| --- | --- |
| C[C@]12CCC(=O)C=C1CC[C@@H]1[C@@H]2[C@@H](O)C[C@@]2(C)[C@H]1CC[C@]2(O)C(=O)CO [HYDROCORTISONE] | 5.5 µM |
| COc1cc(/C=C/C(=O)NCCc2ccc(O)cc2)ccc1O [N-TRANS-FERULOYL TYRAMINE] | 6.33 µM |
| COc1cc(/C=C/C(=O)O[C@H](C(=O)O)[C@](O)(Cc2ccc(O)cc2)C(=O)O)ccc1O [CIMICIFUGIC ACID E] | 19.7 µM |
| COc1cc(/C=C/C(=O)NCCc2ccc(O)c(O)c2)ccc1O [N-TRANS-FERULOYLDOPAMINE] | 39.9 µM |
